Experimental data published in Sander's compilation of Henry's law constants (doi:10.1021/es00156a005).

Test: Henry solubility constant Hcp at 293 K (mol/(m3 Pa))
Details: reference: Murphy et al. (1987)

Compound | Henry solubility constant Hcp at 293 K
Clc1ccccc1-c1cc(Cl)c(Cl)c(Cl)c1 [2,3',4',5'-tetrachlorobiphenyl] | 0.077
Clc1ccc(Cl)c(-c2c(Cl)cc(Cl)c(Cl)c2Cl)c1 [2,2',3,4,5',6-hexachlorobiphenyl] | 0.07
Clc1ccc(-c2cc(Cl)c(Cl)cc2Cl)c(Cl)c1 [2,2',4,4',5-pentachlorobiphenyl] | 0.046
Clc1ccc(Cl)c(-c2c(Cl)ccc(Cl)c2Cl)c1 [2,2',3,5',6-pentachlorobiphenyl] | 0.05
Clc1cc(Cl)c(Cl)c(-c2cc(Cl)c(Cl)cc2Cl)c1 [2,2',3,4',5,5'-hexachlorobiphenyl] | 0.11
Clc1ccc(-c2c(Cl)ccc(Cl)c2Cl)cc1 [2,3,4',6-tetrachlorobiphenyl] | 0.058
Clc1ccc(-c2ccccc2)c(Cl)c1 [2,4-dichlorobiphenyl] | 0.027
Clc1ccc(Cl)c(-c2cccc(Cl)c2Cl)c1 [2,2',3,5'-tetrachlorobiphenyl] | 0.052
Clc1cc(Cl)c(Cl)c(-c2ccc(Cl)c(Cl)c2)c1 [2,3,3',4',5-pentachlorobiphenyl] | 0.17
Clc1ccc(Cl)c(-c2cc(Cl)c(Cl)cc2Cl)c1 [2,2',4,5,5'-pentachlorobiphenyl] | 0.055
Clc1cc(Cl)c(-c2cc(Cl)c(Cl)cc2Cl)cc1Cl [2,2',4,4',5,5'-hexachlorobiphenyl] | 0.1
Clc1cc(Cl)c(-c2c(Cl)ccc(Cl)c2Cl)c(Cl)c1Cl [2,2',3,3',4,6,6'-heptachlorobiphenyl] | 0.11
Clc1ccc(-c2cc(Cl)c(Cl)cc2Cl)cc1Cl [2,3',4,4',5-pentachlorobiphenyl] | 0.12
Clc1cc(Cl)c(-c2c(Cl)c(Cl)cc(Cl)c2Cl)cc1Cl [2,2',3,4',5,5',6-heptachlorobiphenyl] | 0.12
Clc1cc(Cl)c(Cl)c(-c2c(Cl)ccc(Cl)c2Cl)c1 [2,2',3,3',5,6'-hexachlorobiphenyl] | 0.07
Clc1cccc(-c2cc(Cl)ccc2Cl)c1 [2,3',5-trichlorobiphenyl] | 0.029
Clc1ccccc1-c1ccc(Cl)c(Cl)c1Cl [2,2',3,4-tetrachlorobiphenyl] | 0.049
Clc1ccc(-c2ccccc2Cl)cc1 [2,4'-dichlorobiphenyl] | 0.035
Clc1ccc(Cl)c(-c2ccc(Cl)c(Cl)c2)c1 [2,3',4',5-tetrachlorobiphenyl] | 0.052
Clc1cc(Cl)c(Cl)c(-c2cccc(Cl)c2Cl)c1 [2,2',3,3',5-pentachlorobiphenyl] | 0.06
Clc1ccc(-c2ccccc2Cl)c(Cl)c1 [2,2',4-trichlorobiphenyl] | 0.03

Compound | Henry solubility constant Hcp at 293 K
Clc1cccc(-c2c(Cl)cccc2Cl)c1Cl [2,2',3,6'-tetrachlorobiphenyl] | 0.038
Clc1cccc(-c2c(Cl)ccc(Cl)c2Cl)c1Cl [2,2',3,3',6-pentachlorobiphenyl] | 0.057
Clc1ccc(Cl)c(-c2cc(Cl)c(Cl)c(Cl)c2)c1 [2,3',4',5,5'-pentachlorobiphenyl] | 0.19
Clc1ccc(-c2c(Cl)ccc(Cl)c2Cl)c(Cl)c1 [2,2',3,4',6-pentachlorobiphenyl] | 0.036
Clc1ccccc1-c1cccc(Cl)c1Cl [2,2',3-trichlorobiphenyl] | 0.041
Clc1cccc(-c2cccc(Cl)c2Cl)c1Cl [2,2',3,3'-tetrachlorobiphenyl] | 0.061
Clc1ccc(-c2ccc(Cl)c(Cl)c2)cc1 [3,4,4'-trichlorobiphenyl] | 0.065
Clc1ccc(Cl)c(-c2cc(Cl)ccc2Cl)c1 [2,2',5,5'-tetrachlorobiphenyl] | 0.041
Clc1cc(Cl)c(-c2c(Cl)ccc(Cl)c2Cl)cc1Cl [2,2',3,4',5',6-hexachlorobiphenyl] | 0.067
Clc1cccc(-c2c(Cl)cc(Cl)c(Cl)c2Cl)c1Cl [2,2',3,3',4,6-hexachlorobiphenyl] | 0.15
Clc1ccc(Cl)c(-c2c(Cl)ccc(Cl)c2Cl)c1Cl [2,2',3,3',6,6'-hexachlorobiphenyl] | 0.044
Clc1ccc(-c2cc(Cl)c(Cl)c(Cl)c2Cl)c(Cl)c1 [2,2',3,4,4',5-hexachlorobiphenyl] | 0.15
Clc1ccc(-c2cccc(Cl)c2Cl)cc1Cl [2,3,3',4'-tetrachlorobiphenyl] | 0.061
Clc1ccc(-c2ccc(Cl)c(Cl)c2Cl)c(Cl)c1 [2,2',3,4,4'-pentachlorobiphenyl] | 0.06
Clc1ccc(-c2c(Cl)cc(Cl)c(Cl)c2Cl)cc1Cl [2,3,3',4,4',6-hexachlorobiphenyl] | 0.23
Clc1ccc(-c2ccccc2Cl)cc1Cl [2,3',4'-trichlorobiphenyl] | 0.044
Clc1ccc(-c2c(Cl)ccc(Cl)c2Cl)cc1Cl [2,3,3',4',6-pentachlorobiphenyl] | 0.093
Clc1cccc(-c2c(Cl)cccc2Cl)c1 [2,3',6-trichlorobiphenyl] | 0.035
Clc1cccc(-c2ccc(Cl)cc2Cl)c1 [2,3',4-trichlorobiphenyl] | 0.024
Clc1ccc(-c2cc(Cl)ccc2Cl)cc1 [2,4',5-trichlorobiphenyl] | 0.037
Clc1ccc(Cl)c(-c2cc(Cl)c(Cl)c(Cl)c2Cl)c1 [2,2',3,4,5,5'-hexachlorobiphenyl] | 0.1

Compound | Henry solubility constant Hcp at 293 K
Clc1ccc(Cl)c(-c2ccccc2Cl)c1 [2,2',5-trichlorobiphenyl] | 0.033
Clc1ccc(-c2cccc(Cl)c2Cl)c(Cl)c1 [2,2',3,4'-tetrachlorobiphenyl] | 0.05
Clc1ccccc1-c1c(Cl)cccc1Cl [2,2',6-trichlorobiphenyl] | 0.033
Clc1cc(Cl)c(-c2ccc(Cl)c(Cl)c2Cl)cc1Cl [2,2',3,4,4',5'-hexachlorobiphenyl] | 0.13
Clc1ccc(-c2ccc(Cl)c(Cl)c2)c(Cl)c1 [2,3',4,4'-tetrachlorobiphenyl] | 0.049
Clc1cccc(-c2ccc(Cl)c(Cl)c2Cl)c1Cl [2,2',3,3',4-pentachlorobiphenyl] | 0.084
Clc1cc(Cl)c(-c2ccccc2Cl)cc1Cl [2,2',4,5-tetrachlorobiphenyl] | 0.039
Clc1cc(Cl)c(-c2c(Cl)cc(Cl)c(Cl)c2Cl)cc1Cl [2,2',3,4,4',5',6-heptachlorobiphenyl] | 0.15
Clc1ccccc1-c1ccccc1Cl [2,2'-dichlorobiphenyl] | 0.033
Clc1cc(-c2cccc(Cl)c2Cl)cc(Cl)c1Cl [2,3,3',4',5'-pentachlorobiphenyl] | 0.16
Clc1cc(-c2c(Cl)ccc(Cl)c2Cl)c(Cl)c(Cl)c1Cl [2,2',3,3',4,5,6'-heptachlorobiphenyl] | 0.2
Clc1ccc(Cl)c(-c2ccccc2)c1Cl [2,3,6-trichlorobiphenyl] | 0.031
Clc1ccc(-c2cc(Cl)cc(Cl)c2Cl)cc1 [2,3,4',5-tetrachlorobiphenyl] | 0.034
Clc1cc(Cl)c(-c2cccc(Cl)c2Cl)cc1Cl [2,2',3,4',5'-pentachlorobiphenyl] | 0.066
Clc1cccc(-c2ccccc2Cl)c1 [2,3'-dichlorobiphenyl] | 0.032
Clc1cc(Cl)c(Cl)c(-c2ccc(Cl)c(Cl)c2Cl)c1 [2,2',3,3',4,5'-hexachlorobiphenyl] | 0.092
Clc1ccc(-c2cc(Cl)ccc2Cl)c(Cl)c1 [2,2',4,5'-tetrachlorobiphenyl] | 0.036
Clc1ccc(-c2c(Cl)c(Cl)cc(Cl)c2Cl)c(Cl)c1Cl [2,2',3,3',4,5',6'-heptachlorobiphenyl] | 0.3
Clc1ccc(-c2ccc(Cl)c(Cl)c2Cl)cc1 [2,3,4,4'-tetrachlorobiphenyl] | 0.061
